Source: patent publication EP0048954A2, “Beta-lactam compounds, process for the preparation thereof and intermediate products for the preparation thereof” (SAGAMI CHEMICAL RESEARCH CENTER, priority 1980, dated 1982)
Converted amounts (≈) assume the structure as drawn. Read-outs that look alike come from different tables or passages of the source.

Tests used:
Assay in all cases: Antibacterial activity, minimum inhibition concentration (method of The Chemotherapy Association, Japan)
Assay type in all cases: cell-based
[1] = test system: Proteus rettgeri NIH-96; details: Providencia rettgeri
Description: (§1) The abbreviations A to P will be used in the following Tables 2 to 8.
(§2) Test results are shown in terms of the minimum inhibition concentration (µg/mℓ.) in the following Tables 2 to 8.

[2] = test system: Proteus vulgaris OX-19; details: Proteus vulgaris
Description: as §1, §2

[3] = test system: Proteus inconstans NIH-118; details: Providencia alcalifaciens, NIH118; strain P: Proteus inconstans NIH-118; read-out: minimum inhibition concentration
Summary of the method: (§3)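 Lowest concentration inhibiting growth, in µg/mℓ; protocol per the Japan Chemotherapy Association MIC standard.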

[4] = test system: Escherichia coli NIHJ; details: Escherichia coli, read-out: minimum inhibition concentration
Summary of the method: as §3

[5] = test system: Enterobactor cloacae NCTC-9394; details: read-out: minimum inhibition concentration
Summary of the method: as §3

[6] = test system: Pseudomonas aeruginosa NCTC-10490; details: Pseudomonas aeruginosa
Summary of the method: as §3

[7] = test system: Staphylococcus aureus 6538-P
Summary of the method: as §3

[8] = test system: Salmonella typhimurium 3173; details: Salmonella enterica, TYPHIMURIUM
Summary of the method: as §3

[9] = test system: Serratia marcescens 1023
Summary of the method: as §3

[10] = test system: Bacillus subtilis ATCC 6633; details: Bacillus subtilis
Summary of the method: as §3

[11] = test system: Citrobactor freundii NIH-10018 -68; details: read-out: minimum inhibition concentration
Summary of the method: as §3

[12] = test system: Proteus morgani Kono; details: read-out: minimum inhibition concentration
Summary of the method: as §3

[13] = test system: Klebsiella pneumoniae; details: Klebsiella pneumoniae
Summary of the method: as §3

[14] = test system: Serratia marcescens IFO-3736; details: Serratia marcescens
Summary of the method: as §3

[15] = test system: Proteus mirabillis B-30-2 IFO-3849
Summary of the method: as §3

[16] = test system: Escherichia coli NIHJC-2; details: Escherichia coli
Summary of the method: as §3

[17] = NIH96, strain I: Proteus rettgeri NIH-96, read-out: minimum inhibition concentration
[18] = OX19, strain H: Proteus vulgaris OX-19, read-out: minimum inhibition concentration
[19] = strain K: Escherichia coli NIHJ
[20] = strain N: Enterobactor cloacae NCTC-9394
[21] = NCTC10490, strain M: Pseudomonas aeruginosa NCTC-10490, read-out: minimum inhibition concentration
[22] = strain A: Staphylococcus aureus 6538-P, read-out: minimum inhibition concentration
[23] = strain D: Salmonella typhimurium 3173, read-out: minimum inhibition concentration
[24] = Serratia marcescens, 1023, strain E: Serratia marcescens 1023, read-out: minimum inhibition concentration
[25] = ATCC6633, strain B: Bacillus subtilis ATCC 6633, read-out: minimum inhibition concentration
[26] = strain O: Citrobactor freundii NIH-10018 -68
[27] = strain C: Klebsiella pneumoniae, read-out: minimum inhibition concentration
[28] = IFO3736, strain F: Serratia marcescens IFO-3736, read-out: minimum inhibition concentration
[29] = strain G: Proteus mirabillis B-30-2 IFO-3849, read-out: minimum inhibition concentration
[30] = NIHJC2, strain L: Escherichia coli NIHJC-2, read-out: minimum inhibition concentration

Compound | MIC [1, 17] [µg/mL] | MIC [2, 18] [µg/mL] | MIC [4, 19] [µg/mL] | MIC [5, 20] [µg/mL] | MIC [6, 21] [µg/mL] | MIC [7, 22] [µg/mL] | MIC [8, 23] [µg/mL] | MIC [9, 24] [µg/mL] | MIC [10, 25] [µg/mL] | MIC [11, 26] [µg/mL] | MIC ([12]; strain J: Proteus morgani Kono) [µg/mL] | MIC [13, 27] [µg/mL] | MIC [14, 28] [µg/mL] | MIC [15, 29] [µg/mL] | MIC [16, 30] [µg/mL] | also measured
CC(=O)OCC1=C(C(=O)O)N2C(=O)C(NC(=O)C(=C(Cl)Cl)c3cccs3)[C@H]2SC1 (stereo partly shown) [Compound 41, 7-[2-dichloromethylene-2-(2-thienyl)acetamido]-3-acetoxymethyl-3-cephem-4-carboxylic acid] | 50 (≈ 105 µM) | 0.39 (≈ 0.817 µM) | 0.39 (≈ 0.817 µM) | 50 (≈ 105 µM) | 25 (≈ 52.4 µM) | 0.2 (≈ 0.419 µM) | – | – | – | – | – | – | – | – | – | MIC [3]: 1.56 µg/mL (≈ 3.27 µM)
CSc1nnc(SCC2=C(C(=O)[O-])N3C(=O)C(NC(=O)C(=CCl)c4csc(N)n4)[C@H]3SC2)s1.[Na+] (stereo partly shown) [Compound 21, 7-[2-chloromethylene-2-(2-aminothiazol-4-yl)acetamido]-3-(2-methylthio-1,3,4-thiadiazol-5-yl)thiomethyl-3-cephem-4-carboxylic acid sodium salt] | – | – | – | – | – | – | – | – | – | – | – | – | – | – | – | MIC ([1]; NIH96, read-out: minimum inhibition concentration, strain I: Proteus rettgeri NIH-96): < 0.00625 µg/mL; MIC ([2]; OX19, read-out: minimum inhibition concentration, strain H: Proteus vulgaris OX-19): 0.025 µg/mL; MIC ([8]; read-out: minimum inhibition concentration, strain D: Salmonella typhimurium 3173): 3.12 µg/mL; MIC ([9]; Serratia marcescens, 1023, read-out: minimum inhibition concentration, strain E: Serratia marcescens 1023): 3.12 µg/mL; MIC [4]: < 0.00625 µg/mL; MIC ([10]; ATCC6633, read-out: minimum inhibition concentration, strain B: Bacillus subtilis ATCC 6633): 3.12 µg/mL; MIC [5]: 0.39 µg/mL; MIC [11]: 3.12 µg/mL; MIC ([6]; NCTC10490, read-out: minimum inhibition concentration): 6.25 µg/mL; MIC [12]: 0.78 µg/mL; MIC ([13]; read-out: minimum inhibition concentration, strain C: Klebsiella pneumoniae): 3.12 µg/mL; MIC ([14]; IFO3736, read-out: minimum inhibition concentration): 3.12 µg/mL; MIC ([15]; read-out: minimum inhibition concentration, strain G: Proteus mirabillis B-30-2 IFO-3849): 1.56 µg/mL; MIC ([16]; NIHJC2, read-out: minimum inhibition concentration): 1.56 µg/mL; MIC ([7]; Staphylococcus aureus, 6538P, read-out: minimum inhibition concentration, strain A: Staphylococcus aureus 6538-P): 0.2 µg/mL
CC(=O)OCC1=C(C(=O)O)N2C(=O)C(NC(=O)C(=C(Cl)Cl)c3cccc(O)c3)[C@H]2SC1 (stereo partly shown) [Compound 3, 7-[2-dichloromethylene-2-(3-hydroxyphenyl)acetamido]-3-acetoxymethyl-3-cephem-4-carboxylic acid] | 0.1 (≈ 0.205 µM) | 0.76 (≈ 1.56 µM) | 0.2 (≈ 0.41 µM) | 12.5 (≈ 25.7 µM) | 6.25 (≈ 12.8 µM) | 0.39 (≈ 0.8 µM) | 12.5 (≈ 25.7 µM) | 0.25 (≈ 0.513 µM) | 3.12 (≈ 6.41 µM) | 25 (≈ 51.3 µM) | 100 (≈ 205 µM) | 50 (≈ 103 µM) | 50 (≈ 103 µM) | 50 (≈ 103 µM) | 50 (≈ 103 µM) | –
CC(=O)OCC1=C(C(=O)O)N2C(=O)C(NC(=O)C(=C(Cl)Cl)c3ccc(Cl)cc3)[C@H]2SC1 (stereo partly shown) [Compound 29, 7-[2-dichloromethylene-2-(4-chlorophenyl)acetamido]-3-acetoxymethyl-3-cephem-4-carboxylic acid] | 3.12 (≈ 6.18 µM) | > 100 | 100 (≈ 198 µM) | > 100 | > 100 | > 100 | > 100 | 12.5 (≈ 24.7 µM) | 1.56 (≈ 3.08 µM) | > 100 | > 100 | > 100 | > 100 | > 100 | > 100 | –
CC(=O)OCC1=C(C(=O)O)N2C(=O)C(NC(=O)C(=C(Cl)Cl)c3csc(N)n3)[C@H]2SC1 (stereo partly shown) [5-(2), 7-[2-dichloromethylene-2-(2-aminothiazol-4-yl)acetamido]-3-acetoxymethyl-3-cephem-4-carboxylic acid] | < 0.025 | 0.2 (≈ 0.405 µM) | 0.1 (≈ 0.203 µM) | 1.56 (≈ 3.16 µM) | 6.25 (≈ 12.7 µM) | 1.56 (≈ 3.16 µM) | 6.25 (≈ 12.7 µM) | 12.5 (≈ 25.3 µM) | 12.5 (≈ 25.3 µM) | 6.25 (≈ 12.7 µM) | 25 (≈ 50.7 µM) | 6.25 (≈ 12.7 µM) | 50 (≈ 101 µM) | 12.5 (≈ 25.3 µM) | 12.5 (≈ 25.3 µM) | –
CC(=O)OCC1=C(C(=O)O)N2C(=O)C(NC(=O)C(=C(Cl)Cl)c3ccc(Cl)s3)[C@H]2SC1 (stereo partly shown) [Compound 31, 7-[2-dichloromethylene-2-(5-chloro-2-thienyl)acetamido]-3-acetoxymethyl-3-cephem-4-carboxylic acid] | 1.56 (≈ 3.05 µM) | 100 (≈ 195 µM) | 25 (≈ 48.8 µM) | > 100 | 100 (≈ 195 µM) | 0.2 (≈ 0.391 µM) | > 100 | 100 (≈ 195 µM) | 6.25 (≈ 12.2 µM) | > 100 | > 100 | > 100 | > 100 | > 100 | > 100 | –
Cn1nnnc1SCC1=C(C(=O)O)N2C(=O)C(NC(=O)C(=CCl)c3cccs3)C2SC1 (stereo not drawn) [Compound 34, 7-[2-chloromethylene-2-(2-thienyl)acetamido]-3-(l-methyl-lH-tetrazol-5-yl)thiomethyl-3-cephem-4-carboxylic acid] | 0.05 (≈ 0.1 µM) | 12.5 (≈ 25.1 µM) | 1.56 (≈ 3.13 µM) | 12.5 (≈ 25.1 µM) | 100 (≈ 200 µM) | 25 (≈ 50.1 µM) | 12.5 (≈ 25.1 µM) | 1.56 (≈ 3.13 µM) | 0.78 (≈ 1.56 µM) | 100 (≈ 200 µM) | 100 (≈ 200 µM) | 100 (≈ 200 µM) | 100 (≈ 200 µM) | 100 (≈ 200 µM) | 25 (≈ 50.1 µM) | –
CC(=O)OCC1=C(C(=O)O)N2C(=O)C(NC(=O)C(=C(Cl)Cl)c3ccc(N)cc3)[C@H]2SC1 (stereo partly shown) [4-(2), 7-[2-dichloromethylene-2-(4-aminophenyl)acetamido]-3-acetoxymethyl-3-cephem-4-carboxylic acid] | 0.2 (≈ 0.411 µM) | 6.25 (≈ 12.9 µM) | 0.39 (≈ 0.802 µM) | > 100 | 12.5 (≈ 25.7 µM) | 0.39 (≈ 0.802 µM) | 100 (≈ 206 µM) | 3.12 (≈ 6.43 µM) | 1.56 (≈ 3.21 µM) | > 100 | > 100 | > 100 | > 100 | > 100 | > 100 | –
CC(=O)OCC1=C(C(=O)O)N2C(=O)C(NC(=O)C(=C(Cl)Cl)c3ccc(O)cc3)[C@H]2SC1 (stereo partly shown) [Compound 2, 7-[2-dichloromethylene-2-(4-hydroxyphenyl)acetamido]-3-acetoxymethyl-3-cephem-4-carboxylic acid] | 0.2 (≈ 0.41 µM) | 6.25 (≈ 12.8 µM) | 0.39 (≈ 0.8 µM) | > 100 | 6.25 (≈ 12.8 µM) | 0.39 (≈ 0.8 µM) | 100 (≈ 205 µM) | 6.25 (≈ 12.8 µM) | 3.12 (≈ 6.41 µM) | > 100 | > 100 | > 100 | > 100 | > 100 | > 100 | –
